SMILES strings stand for the structures. Counter-ions that a name gives are not always drawn. Like-named read-outs stand apart in the source and are kept apart here.

Holding throughout (design): species or system porcine
Experiment [1] concerns the target TDP-43 binding to heparin (HS-GAG) (Homo sapiens, UniProt Q13148). The experiment can be described thus: Inhibition of TDP-43 binding to immobilized heparin-BSA (ELISA). The note with it: for inhibition at 30 µM: read-out: TDP43/Heparin Activity (% inhibition class); for IC50: TDP-43, heparin-BSA. As to the method: (§1) Porcine intestinal mucosa heparin conjugated to Bovine Serum Albumin (Heparin-BSA) was prepared as described (Najjam, S. et al. 1997, Cytokine 12, 1013-1022). Heparin is a sulfated HS-GAG and is commonly used as a HS-GAG in biochemical and binding assays (Lindahl, U. and Kjellen, L. (2013) ibid). Heparin-BSA at 0.01 mg/ml in Phosphate Buffered Saline (PBS; pH 7.4) was added to a 96 well polystyrene ELISA plate (NUNC Cat. No. 449824; 100 μl per well) and incubated Over Night (ON) at 4 degrees Celsius. For negative controls, ELISA plates were coated with BSA instead of Heparin-BSA, using the same procedure. Following the incubation, the plate was washed consecutively, by immersion, with de-ionized water and PBS (pH 7.4). The ELISA plate was then blocked with nonfat milk (2%, 200 μl per well) for 2 hours at Room Temperature (RT) with gentle shaking. Following blocking, the plate was washed with de-ionized water then PBS (pH 7.4). GBAPs were dissolved and diluted in PBS (pH 6.5, supplemented with 0.1% BSA) at desired concentrations, added to the ELISA plates containing immobilized Heparin-BSA (100 μl per well) and incubated for 2 hours at RT with gentle shaking. Following incubation, the plate was washed with de-ionized water and three times with PBS (pH 6.5) plus Tween. Bound GBAP was detected by a monoclonal antibody specific for that GBAP, followed by incubation with secondary antibody conjugated to horseradish peroxidase (HRP). Antibody was diluted in PBS (pH 6.5 supplemented with 1% BSA). Following each incubation with antibody, the plate was washed with de-ionized water and three times with PBS (pH 6.5) wash buffer containing 0.1% Tween. The peroxidase substrate chromogen, TMB (Dako Cat. No. S1599) was added (100 μl per well) to the ELISA plate and incubated at room temperature. After 5 minutes ELISA Stop Solution (hydrochloric acid 1N, sulfuric acid 3N) was added (100 μl per well) to stop the peroxidase catalyzed colorimetric reaction. The Optical Density of the samples was measured at 450 nm using an ELISA plate reader (BioTek Synergy H1). Following color development, the % inhibition compared to control (BSA-coated plates) was determined. IC-50s were calculated using GraphPad Prism software.
The assay was performed as described in Example 43, with the following modifications.
Following to coating the plates with Heparin-BSA, plates were washed as described. The compounds were dissolved in DMSO at 10 mM final concentration and further diluted prior to assay. DMSO concentration in the screening well was up to 2%. Individual compounds were co-incubated with TDP-43 on plates containing immobilized heparin. TDP43 from R&D System (Cat. No. AP-190) was quickly frozen and kept in aliquots at −80 degrees Celsius. TDP-43 dissolved in PBS (pH 6.5, supplemented with BSA, 0.1%) was added to the ELISA plate (100 μl per well) and incubated for 2 hours at RT with gentle shaking. Following the incubation, the plate was washed with de-ionized water and three times with PBS (pH 6.5) plus Tween. Bound TDP-43 was detected by Anti-TDP43 Monoclonal Antibody (R&D System Cat. No. MAB7778), followed by secondary anti-IgG antibody conjugated to HRP (R&D System, Cat. No. HAF007). Following to color development with TMB, as described in Example 43, the Optical Density of the samples was measured at 450 nm using an ELISA plate reader. Following color development, the % inhibition compared to control (no compound, DMSO control) for every compound was determined.
As described in Example 43, Heparin in the form of Heparin-BSA conjugate is used as a source of HS-GAG. For each compound IC-50 value in TDP-43—heparin-BSA binding assay is shown in μM (micromolar). In some cases IC-50 was not measured and % inhibition at 30 μM compound concentration is shown instead. […] All assays were done on 96-well plates in duplicates and experiments were repeated at least twice. […]

Experiment [2] concerns the target T1, Amyloid-beta(1-42) oligomer binding to heparin (HS-GAG) (Homo sapiens, UniProt P05067).
T1 construct: Beta-amyloid (1-42) was purchased from rPeptide (Cat. No. A1163); purchased rPeptide A1163
Briefly: Inhibition of Amyloid-beta(1-42) oligomer binding to immobilized heparin-BSA (ELISA). Conditions: for inhibition at 30 µM: read-out: Abeta42/Heparin Activity (% inhibition class); for IC50: co-incubation on heparin-BSA plates, read-out: Abeta42/Heparin Activity (IC-50). As to the method: as §1
(§2) The assay was performed as described in Example 43, with the following modifications. Following to coating the plates with Heparin-BSA, plates were washed as described. The compounds were dissolved in DMSO at 10 mM final concentration and further diluted prior to assay. DMSO concentration in the screening well was up to 2%. Individual compounds were co-incubated with Beta-amyloid peptides on plates containing immobilized heparin. Beta-amyloid (1-42) was purchased from rPeptide (Cat. No. A1163) and used to prepare oligomers according to Stine et al., 2003 (J Biol Chem. 278(13):11612-22) as follows. 1,1,1,3,3,3-Hexafluoro-2-propanol- (HFIP; Sigma Cat. No. 105228)-treated Beta amyloid (1-42) was dissolved in dry DMSO (Sigma Cat. No. D2650) to 5 mM concentration. Dissolved Beta amyloid (1-42) was then diluted to 100 μM in ice-cold cell culture medium (phenol red-free Ham's F-12; Caisson Labs, Cat. No. HFL05), followed immediately by vortexing for 30 seconds, and incubating at 4 degrees Celsius for 24 h. Resulting Beta amyloid (1-42) oligomers were centrifuged at 12,000 rpm for 10 min at 4 degree Celsius to remove aggregates. Oligomers were then quickly frozen and kept in aliquots at −80 degrees Celsius. Beta-amyloid (1-40) from rPeptide (Cat No. A1153) was dissolved in DMSO, quickly frozen and kept in aliquots at −80 degrees Celsius. Beta-amyloid (1-42) oligomers or Beta-amyloid (1-40) diluted in PBS (pH 6.5, supplemented with BSA, 0.1%) were added to the ELISA plate (100 μl per well) and incubated for 2 hours at RT with gentle shaking. Following the incubation, the plate was washed with de-ionized water and three times with PBS (pH 6.5) plus Tween. […]

In experiment [3] the target is Amyloid-beta(1-40) binding to heparin (HS-GAG) (Homo sapiens, UniProt P05067). Briefly: Inhibition of Amyloid-beta(1-40) binding to immobilized heparin-BSA (ELISA). Conditions: for inhibition at 30 µM: read-out: Abeta40/Heparin Activity (% inhibition class); for IC50: Abeta(1-40), co-incubation on heparin-BSA plates. As to the method: as §1, §2
[4] abbreviates: Abeta40/Heparin Activity (IC-50).
Where [5] appears, read: read-out: TDP43/Heparin Activity (IC-50).
Setting [6] is: read-out: Abeta40/Heparin Activity (IC-50).

TDP-43 binding to heparin (HS-GAG), sequence (Q13148 whole entry): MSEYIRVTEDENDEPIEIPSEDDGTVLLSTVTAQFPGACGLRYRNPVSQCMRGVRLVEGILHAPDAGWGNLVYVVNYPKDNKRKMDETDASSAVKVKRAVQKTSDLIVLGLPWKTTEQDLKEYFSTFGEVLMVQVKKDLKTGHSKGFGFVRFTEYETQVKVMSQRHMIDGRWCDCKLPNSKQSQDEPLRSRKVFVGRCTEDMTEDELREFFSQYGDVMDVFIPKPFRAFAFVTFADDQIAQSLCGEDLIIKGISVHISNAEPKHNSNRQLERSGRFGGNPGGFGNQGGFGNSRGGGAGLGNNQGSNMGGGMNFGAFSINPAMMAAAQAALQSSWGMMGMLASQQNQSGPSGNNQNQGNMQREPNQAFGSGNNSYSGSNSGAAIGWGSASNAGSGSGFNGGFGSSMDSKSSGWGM
T1 sequence (P05067 672-713): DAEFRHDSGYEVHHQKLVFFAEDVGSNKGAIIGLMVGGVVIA
Amyloid-beta(1-40) binding to heparin (HS-GAG), sequence (P05067 672-711): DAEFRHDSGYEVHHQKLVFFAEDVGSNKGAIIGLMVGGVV

As for `COc1cc2nccc(NN=Cc3ccc(-n4ccnc4)c(C)c3)c2cc1OC` [Compound 11, 4-(2-(4-(1H-imidazol-1-yl)-3-methylbenzylidene)hydrazineyl)-6,7-dimethoxyquinoline hydrochloride], the inhibition at 30 µM was less than 30% in experiment [1], less than 30% in experiment [2] and greater than 30% in experiment [3].

As for `COc1ccc2c(NN=Cc3ccc(-n4ccnc4)c(C)c3)ccnc2c1` [Compound 12, 4-(2-(4-(1H-imidazol-1-yl)-3-methylbenzylidene)hydrazineyl)-7-methoxyquinoline], the inhibition at 30 µM in experiment [1] and in experiment [2] was less than 30% in each case. For the same compound, the IC50 in experiment [3] (setting [4]) worked out at 17.9 µM.

As to `COc1cc2nccc(N/N=C/c3ccc(-n4ccnc4)c(OC)c3)c2cc1OC` [Compound 13, (E)-4-(2-(4-(1H-imidazol-1-yl)-3-methoxybenzylidene)hydrazineyl)-6,7-dimethoxyquinoline phosphate], the inhibition at 30 µM in experiment [1], in experiment [2] and in experiment [3] was less than 30% throughout.

For `Clc1ccc2c(N/N=C/c3ccc(-n4ccnc4)nc3)ccnc2c1` [Compound 14, (E)-4-(2-((6-(1H-imidazol-1-yl)pyridin-3-yl)methylene)hydrazineyl)-7-chloroquinoline hydrochloride], the figures for the IC50 in experiment [1] (TDP43/Heparin Activity (IC-50)), in experiment [2] (Abeta(1-42) oligomers) and in experiment [3] (setting [4]) were 4.32 µM, 8.14 µM and 7.77 µM, respectively.

In the case of `Cc1ncn(-c2ccc(/C=N\Nc3ncnc4cc(Cl)ccc34)cn2)c1C` [Compound 15, 7-chloro-4-(2-((6-(4,5-dimethyl-1H-imidazol-1-yl)pyridin-3-yl)methylene)hydrazineyl)quinazoline hydrochloride], the IC50 in experiment [1] (TDP43/Heparin Activity (IC-50)) turned out to be 3.06 µM; in experiment [2] (Abeta(1-42) oligomers) it was 18.9 µM; in experiment [3] (setting [4]) it was 23 µM.

Turning to `C/C(=N\Nc1ncnc2cc(Cl)ccc12)c1ccc(-n2cnc(C)c2C)nc1` [Compound 16, 7-chloro-4-(2-(1-(6-(4,5-dimethyl-1H-imidazol-1-yl)pyridin-3-yl)ethylidene)hydrazineyl)quinazoline phosphate], the IC50 in experiment [1] (TDP43/Heparin Activity (IC-50)) was determined as 2.16 µM; in experiment [2] (Abeta(1-42) oligomers), 5.48 µM; in experiment [3] (setting [4]), 4.37 µM.

Turning to `C/C(=N\Nc1ncnc2cc(Cl)ccc12)c1ccc(-n2cc[n+](C)c2)nc1` [Compound 17, (E)-1-(5-(1-(2-(7-chloroquinazolin-4-yl)hydrazineylidene)ethyl)pyridin-2-yl)-3-methyl-1H-imidazol-3-ium iodide phosphoric acid salt], the figures for the IC50 in experiment [1] (TDP43/Heparin Activity (IC-50)), in experiment [2] (Abeta(1-42) oligomers) and in experiment [3] (setting [4]) were 33.6 µM, 11.7 µM and 28.1 µM, respectively.

In the case of `C/C(=N\Nc1ncnc2cc(Cl)ccc12)c1ccc(-n2cc(C)nc2C)nc1` [Compound 18, (E)-7-chloro-4-(2-(1-(6-(2,4-dimethyl-1H-imidazol-1-yl)pyridin-3-yl)ethylidene)hydrazineyl)quinazoline phosphoric acid salt], the IC50 in experiment [1] (setting [5]) stood at 4.77 µM; in experiment [2] (Abeta(1-42) oligomers), 13.6 µM; in experiment [3] (setting [6]), 3.31 µM.

Regarding `C/C(=N\Nc1ncnc2ccccc12)c1ccc(-n2cc(C)nc2C)nc1` [Compound 19, (E)-4-(2-(1-(6-(2,4-dimethyl-1H-imidazol-1-yl)pyridin-3-yl)ethylidene)hydrazineyl)quinazoline], the figures for the IC50 in experiment [1] (TDP43/Heparin Activity (IC-50)) and in experiment [3] (setting [4]) were 36.8 µM and 10.2 µM, respectively. For the same compound, the inhibition at 30 µM in experiment [2] is less than 30%.

`CN1CCN(c2cc(Nc3ccnc4cc(Cl)ccc34)ccn2)CC1` [Compound 20, 7-chloro-N-(2-(4-methylpiperazin-1-yl)pyridin-4-yl)quinolin-4-amine]: the inhibition at 30 µM in experiment [1], in experiment [2] and in experiment [3] was less than 30% in each case.

With `C/C(=N\Nc1ncnc2cc(F)ccc12)c1ccc(-n2cnc(C)c2C)nc1` [Compound 21, (E)-4-(2-(1-(6-(4,5-dimethyl-1H-imidazol-1-yl)pyridin-3-yl)ethylidene)hydrazineyl)-7-fluoroquinazoline], the results for the IC50 in experiment [1] (setting [5]), in experiment [2] (Abeta(1-42) oligomers) and in experiment [3] (setting [6]) were 4.6 µM, 9.5 µM and 7.41 µM, respectively.

Turning to `CC(=NNc1ccnc2cc(Cl)ccc12)c1ccc(-n2cnc(C)c2C)nc1` [Compound 22, 7-chloro-4-(2-(1-(6-(4,5-dimethyl-1H-imidazol-1-yl)pyridin-3-yl)ethylidene)hydrazineyl)quinoline], the figures for the IC50 in experiment [1] (TDP43/Heparin Activity (IC-50)) and in experiment [3] (setting [4]) were 9.02 µM and 16.3 µM, respectively. Further, the inhibition at 30 µM in experiment [2] is greater than 30%.

Consider `CC(=NNc1ccnc2cc(Cl)ccc12)c1ccc(-n2cc[n+](C)c2)nc1` [Compound 23, 1-(5-(1-(2-(7-chloroquinolin-4-yl)hydrazineylidene)ethyl)pyridin-2-yl)-3-methyl-1H-imidazol-3-ium iodide], for which the inhibition at 30 µM in experiment [1] was less than 30%; in experiment [2] (30 μM compound, Abeta(1-42) oligomers, heparin-BSA), less than 30%; in experiment [3], greater than 30%.

With `C/C(=N\Nc1nncc2cc(Cl)ccc12)c1ccc(-n2cc(C)nc2C)nc1` [Compound 24, (E)-6-chloro-1-(2-(1-(6-(2,4-dimethyl-1H-imidazol-1-yl)pyridin-3-yl)ethylidene)hydrazineyl)phthalazine], the IC50 in experiment [1] (setting [5]) amounted to 0.89 µM; in experiment [2] (Abeta(1-42) oligomers) it was 16.9 µM; in experiment [3] (setting [6]), 6.42 µM.

With `Cc1ncn(-c2ccc(Nc3ncnc4cc(Cl)ccc34)cn2)c1C` [Compound 25, 7-chloro-N-(6-(4,5-dimethyl-1H-imidazol-1-yl)pyridin-3-yl)quinazolin-4-amine], the IC50 is 2.45 µM in experiment [1] (TDP43/Heparin Activity (IC-50)), 9.9 µM in experiment [2] (Abeta(1-42) oligomers) and 1.7 µM in experiment [3] (setting [4]).

The values above are taken from patent US20240398783A1, “Compounds and Pharmaceutical Compositions Comprising Inhibitors of Amyloid Peptide Interactions with Glycosaminoglycans, Methods of Treatment and Use Thereof” (Gismo Therapeutics, Inc., priority 2021, published 2024).
